Source: patent US9340532B2, “Methods and compositions for inhibiting CNKSR1” (PHUSIS THERAPEUTICS, INC., priority 2012, dated 2016)
Entries after “also recorded” stand apart in the source; their conditions may differ. Like-named read-outs stand apart in the source and are kept apart here.

Tests used:
[1] = target: T1, PH-domain of CNKSR1 (Homo sapiens, UniProt Q969H4); assay: SPR binding (Biacore 2000) to CNKSR1 PH-domain, initial hits; details: Table 5
T1 sequence (Q969H4 403-502 limits assumed): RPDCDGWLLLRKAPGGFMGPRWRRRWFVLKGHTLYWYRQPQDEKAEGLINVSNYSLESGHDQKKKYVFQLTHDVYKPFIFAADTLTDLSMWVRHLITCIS
Description: In embodiments, a homology model for the PH-domain of CNSKR1 based on known PH-domain crystal structures can be developed. The docking program PHuDock® can be used to identify potential inhibitors of CNKSR1. […] The binding of the compounds to the expressed PH-domain of CNKSR1 (KDobs) can be measured by surface plasmon resonance (SPR) spectroscopy.
Other docking was performed using modeling algorithms with state-of-the-art commercial drug discovery software (Schrodinger suite). […] Additionally, ligand-based approaches provided an alternative to structure based drug discovery. Ligand-based virtual screening methodologies can take into account shape and electrostatics (like ROCS) and the pharmacophoric features (acceptor, donor, hydrophobic, aromatic, etc.) of its functional groups. […] SPR interaction analyses of all other compounds was undertaken using a Biacore T100 with Control and Evaluation software kit.

[2] = target: T2, CNK1 PH-domain (CNKSR1) (Homo sapiens, UniProt Q969H4); assay: SPR binding assay (Biacore T100), CNK1 PH-domain
T2 construct: The PH-domain His-fusion proteins (CNK1 and AKT1) were expressed and immobilized on a NTA chip; made in house
T2 sequence (Q969H4 403-502 limits assumed): T1 sequence (Q969H4 403-502 limits assumed)
Summary of the method: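 His-tagged CNK1 PH-domain was captured on an NTA chip to ≤10,000 RU. Small-molecule analytes were injected at 50 μM to 0.010 μM at 30 μL/min, with 1-5% (v/v) DMSO in samples and running buffer. Binding was measured by surface plasmon resonance.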

[3] = target: T3, PH-domain of PDPK1 (Homo sapiens, UniProt O15530); assay: SPR binding to expressed PH-domain of PDPK1
T3 construct: made in house
T3 sequence (O15530 459-550 limits assumed): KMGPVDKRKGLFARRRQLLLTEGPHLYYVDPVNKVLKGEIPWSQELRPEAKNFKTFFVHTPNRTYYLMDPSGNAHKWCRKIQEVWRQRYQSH
Description: (§1) In embodiments, the binding of identified compounds to the crystal structures of other PH-domain signaling proteins, AKT, PDPK1, Btk, and Tiam1 can be predicted. In such embodiments, the Kds exceed about 100 μM. In other embodiments, SPR can measure the binding of identified compounds to the expressed PH-domains of AKT, PDPK1 and Tiam1. […] Thus, the identified compounds appear have, at least, about 50 to about 100 fold selectivity for CNKSR1 compared to the other PH-domains studied.
(§2) A commercially available docking package, GOLD (GOLD [3.2], CCDC: Cambridge, UK, 2007) was used to evaluate the docking of compounds 1-7 into the binding pocket, see e.g. Table 5. Other docking was performed using modeling algorithms with state-of-the-art commercial drug discovery software (Schrodinger suite). GLIDE was chosen as the docking algorithm used to select and optimize compounds, providing a GlideScore as a rough estimate of binding affinity that was used to rank and select the best compounds. Additionally, ligand-based approaches provided an alternative to structure based drug discovery. Ligand-based virtual screening methodologies can take into account shape and electrostatics (like ROCS) and the pharmacophoric features (acceptor, donor, hydrophobic, aromatic, etc.) of its functional groups. […]

[4] = tested on: PH-domain of Tiam1; assay: SPR binding to expressed PH-domain of Tiam1
Description: as §1, §2

[5] = tested on: mut-KRAS NSCLC cell lines; assay: Screening against NSCLC cell line panel, mut-KRAS lines; format: cell-based
Description: The isogenic KRAS lines harboring G12D, G12C, and G12V were obtained from Horizon Discovery labs on a one year lease. These cells were cultured in McCoys media with 10% FBS to 80% confluency. Cells were then released from flasks via trypsinization and plated into 96-well plates at an initial density range of 2000 cells per well. Cells were allowed 24 hours to attach, and then the agents were added to the culture media at a range of concentrations from 0-100 μM. Cells were incubated for 72 hours with the drugs, and then viability was assessed using an MTS viability assay. Cells were exposed to MTS reagent (Promega) dissolved in PBS (Hyclone) at a concentration of 200 μL reagent/mL media for 2 hours. Absorbance was then read at 490 nm, and viability was expressed as a percentage normalized between the negative control (no cells plated) and the condition of cells with no drug added (100% viability) normalized as the upper limit of viability.
Our panel of 30 cell lines and an extensive characterization were obtained from Dr. John Minna (UTSW). All cell lines were cultured in RPMI 1640 with 10% FBS. Cells were treated with concentrations of agents at concentrations 0.01 to 50 μM and evaluated as described above. IC50's were determined using Excelfit.

[6] = tested on: A549 (KRAS mutant cell line); assay: Proliferation Assay A549; format: cell-based; details: Homo sapiens, N = 2 experiments
Summary of the method: (§3)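 Cells plated 2000 per well, allowed 24 h to attach, then exposed 72 h to agents (0-100 μM for isogenic lines; 0.01 to 50 μM for the RPMI 1640/10% FBS-cultured 30-line NSCLC panel). MTS read at 490 nm after 2 h, normalized to no-cell and no-drug controls; IC50 from curve fitting.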

[7] = tested on: H1373 (KRAS mutant cell line); assay: Proliferation Assay H1373; format: cell-based; details: Homo sapiens, NCI-H1373, N = 2 experiments
Summary of the method: as §3

[8] = tested on: H1975 (KRAS wildtype cell line); assay: Proliferation Assay H1975; format: cell-based; details: Homo sapiens, NCI-H1975, n = 1
Summary of the method: as §3

[9] = tested on: mut-KRAS H2122 NSCLC tumor xenograft; assay: Antitumor activity, H2122 xenograft; format: in vivo; details: scid mice
Description: In embodiments, identified compounds may be nontoxic at about […] for about 20 days with no weight loss and no observable toxic effects for the animal, and may have antitumor activity (FIG. 4 A).

[10] = Stability in biological media: mouse plasma; format: in vitro ADME; details: 50 μg/ml, 37° C.
[11] = Stability in biological media: human plasma; format: in vitro ADME; details: 50 μg/ml, 37° C.
[12] = Stability in biological media: fetal bovine serum; format: in vitro ADME; details: 10% fetal bovine serum, 50 μg/ml, 37° C.

Kd [1]: 1.8 ± 0.6 µM
Kd ([2]; Table 6, read-out: CNKS KD): 3.2 µM
Surface Plasmon Resonance CNKSR1 binding (RU max) ([2]; date 11 26 13): 5.019 RU * 100/Da
Surface Plasmon Resonance CNKSR1 stability (RU max post-injection) ([2]; date 11 26 13): 0.761 RU * 100/Da
Surface Plasmon Resonance CNKSR1 binding (RU max) ([2]; date 12 09 13): 0.205 RU * 100/Da
Surface Plasmon Resonance CNKSR1 stability (RU max post-injection) ([2]; date 12 09 13): 0.798 RU * 100/Da
SPR binding to PH-domain of PDPK1 [3]: No measurable binding
SPR binding to PH-domain of Tiam1 [4]: No measurable binding
IC50 ([5]; Table 5, read-out: Mean IC50 mut-KRAS): 23.9 ± 2.5 µM
IC50 [6]: 15 µM
IC50 [7]: > 100 µM
IC50 [8]: 45 µM
Half life [10]: 6.3 min
Half life [11]: stable
Half life ([11]; listed as #7): completely stable
Half life [12]: 13.2 h
SMILES: CCOC(=O)Cc1nn(Cc2nc(-c3ccc(C)cc3)cs2)c(=O)c2ccccc12 [Compound 7]
inhibition of mut-KRAS cell growth (in words) ([5]; FIG. 3 and FIG. 5): low micromolar inhibition; also recorded: as effectively as siRNA to KRAS or CNKSR1
IC50 ([5]; Table 6, mean of 3 mut-KRAS lines, read-out: NSCL cell line cytotoxicity IC50 mut-KRAS): 49 µM
tumor growth rate inhibition [9]: about 45%
tumor growth rate ([9]; vehicle about 55): about 30 mm^3/day
